Experimental data taken from ChEMBL document CHEMBL1157739, “5'-O-dephosphorylated 2',5'-oligoadenylate (2-5A) with 8-methyladenosine at the 2'-terminus activates human RNase L” (Bioorg Med Chem Lett, 2010).
Activity calls are given as the source filed them. The calls are words filed in the database; no cut-off is given here.

Tests used:
[1] = molecular target: T1, 2-5A-dependent ribonuclease (Homo sapiens, UniProt Q05823); assay: […] of human RNaseL ANK domain expressed in Escherichia coli assessed as 5' flurescein-r(C11U2C7)-3' RNA cleavage
T1 sequence (Q05823 whole entry): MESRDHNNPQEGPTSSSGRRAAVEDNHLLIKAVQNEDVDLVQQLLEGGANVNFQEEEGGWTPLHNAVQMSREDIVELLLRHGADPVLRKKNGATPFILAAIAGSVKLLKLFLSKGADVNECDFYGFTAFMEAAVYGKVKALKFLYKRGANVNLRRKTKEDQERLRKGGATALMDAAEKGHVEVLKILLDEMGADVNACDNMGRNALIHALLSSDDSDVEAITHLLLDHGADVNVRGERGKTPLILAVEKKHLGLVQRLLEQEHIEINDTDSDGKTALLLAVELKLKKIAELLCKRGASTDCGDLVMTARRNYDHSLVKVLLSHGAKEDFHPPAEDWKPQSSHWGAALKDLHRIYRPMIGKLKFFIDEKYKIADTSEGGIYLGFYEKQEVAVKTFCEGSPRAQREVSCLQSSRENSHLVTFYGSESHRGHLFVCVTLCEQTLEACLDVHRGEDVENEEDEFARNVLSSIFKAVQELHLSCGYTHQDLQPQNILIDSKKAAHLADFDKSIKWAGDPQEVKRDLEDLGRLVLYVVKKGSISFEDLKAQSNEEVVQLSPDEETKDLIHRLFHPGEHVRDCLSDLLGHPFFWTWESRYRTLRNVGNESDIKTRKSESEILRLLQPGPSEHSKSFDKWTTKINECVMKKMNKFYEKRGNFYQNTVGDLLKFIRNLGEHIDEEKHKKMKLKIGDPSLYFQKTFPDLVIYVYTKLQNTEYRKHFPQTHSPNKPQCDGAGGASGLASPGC

[2] = molecular target: T2, 2-5A-dependent ribonuclease (Homo sapiens) (UniProt Q05823); assay: […] of human RNaseL ANK domain expressed in Escherichia col assessed as 5' flurescein-r(C11U2C7)-3' RNA cleavage relative to control; set-up: concentration or dose not given beside the values
T2 sequence (whole entry): T1 sequence (Q05823 whole entry)

[3] = Stability assessed as half life; type: physicochemical

| Compound | EC50 ([1]; read-out: EC50) [nM] | Activity [2] | half-life [3] [min] | EC50 [1] |
| --- | --- | --- | --- | --- |
| Nc1ncnc2c1ncn2[C@@H]1O[C@H](COP(=O)(O)O[C@@H]2[C@H](O)[C@@H](COP(=O)(O)O[C@@H]3[C@H](O)[C@@H](COP(=O)(O)O[C@@H]4[C@H](O)[C@@H](COP(=O)(O)O)O[C@H]4n4cnc5c(N)ncnc54)O[C@H]3n3cnc4c(N)ncnc43)O[C@H]2n2cnc3c(N)ncnc32)[C@@H](O)[C@H]1O | 9.7 | 1% | 14 | – |
| Nc1ncnc2c1ncn2[C@@H]1O[C@H](COP(=O)(O)O[C@@H]2[C@H](O)[C@@H](COP(=O)(O)O[C@@H]3[C@H](O)[C@@H](COP(=O)(O)O[C@@H]4[C@H](O)[C@@H](CO)O[C@H]4n4cnc5c(N)ncnc54)O[C@H]3n3cnc4c(N)ncnc43)O[C@H]2n2cnc3c(N)ncnc32)[C@@H](O)[C@H]1O | – | inactive | 18 | Not Active |
| Cc1nc2c(N)ncnc2n1[C@@H]1O[C@H](COP(=O)(O)O[C@@H]2[C@H](O)[C@@H](COP(=O)(O)O[C@@H]3[C@H](O)[C@@H](CO)O[C@H]3n3cnc4c(N)ncnc43)O[C@H]2n2cnc3c(N)ncnc32)[C@@H](O)[C@H]1OP(=O)(O)OC[C@H]1O[C@@H](n2cnc3c(N)ncnc32)[C@H](O)[C@@H]1O | > 50 | < 0.19% | 18 | – |
| Cc1nc2c(N)ncnc2n1[C@@H]1O[C@H](COP(=O)(O)O[C@@H]2[C@H](O)[C@@H](COP(=O)(O)O[C@@H]3[C@H](O)[C@@H](CO)O[C@H]3n3cnc4c(N)ncnc43)O[C@H]2n2cnc3c(N)ncnc32)[C@@H](O)[C@H]1O | > 50 | < 0.19% | 18 | – |

Second part, the compound after the results:

| EC50 ([1]; read-out: EC50) [nM] | Activity [2] | half-life [3] [min] | EC50 [1] | Compound |
| --- | --- | --- | --- | --- |
| 2.5 | 3.9% | > 90 | – | Cc1nc2c(N)ncnc2n1[C@@H]1O[C@H](COP(=O)(O)O[C@@H]2[C@H](O)[C@@H](COP(=O)(O)O[C@@H]3[C@H](O)[C@@H](COP(=O)(O)O[C@@H]4[C@H](O)[C@@H](CO)O[C@H]4n4cnc5c(N)ncnc54)O[C@H]3n3cnc4c(N)ncnc43)O[C@H]2n2cnc3c(N)ncnc32)[C@@H](O)[C@H]1O |
| 2.5 | 3.9% | – | – | Cc1nc2c(N)ncnc2n1[C@@H]1O[C@H](COP(=O)(O)O[C@@H]2[C@H](O)[C@@H](COP(=O)(O)O[C@@H]3[C@H](O)[C@@H](COP(=O)(O)O[C@@H]4[C@H](O)[C@@H](COP(=O)(O)O)O[C@H]4n4cnc5c(N)ncnc54)O[C@H]3n3cnc4c(N)ncnc43)O[C@H]2n2cnc3c(N)ncnc32)[C@@H](O)[C@H]1O |
